Paper PMC11855478, “Bicyclic N,S-Acetals Containing Fused Cysteine-Amide System as New Heterocyclic Class Targeting Human Farnesyltransferase (FTase-h)” (International Journal of Molecular Sciences, 2025)

What was measured:
Format in all cases: cell-based, human
SN12C (Renal Cancer) = assay: NCI one dose, SN12C; conditions: 1.00E-5 Molar one dose
Method: (§1) 3.4. Cell Proliferation Assay
(§2) Selected compounds were tested on a panel of 60 human cancer cell lines at the National Cancer Institute (NCI), Germantown, MD, USA. The cytotoxicity studies were conducted using a 48 h exposure protocol using the sulfo-rhodamine B assay.

[1] = test system: NCI-H226 (Non-Small Cell Lung Cancer); assay: NCI one dose, NCI-H226; conditions: NCI-H226, 1.00E-5 Molar one dose
Method: as §1, §2

HL-60(TB) (Leukemia) = assay: NCI one dose, HL-60(TB); conditions: 1.00E-5 Molar one dose
Method: as §1, §2

Row | SMILES | Growth Percent (SN12C (Renal Cancer)) | Growth Percent [1] | Growth Percent (HL-60(TB) (Leukemia))
1 | O=C(NCc1ccccc1)[C@@H]1CS[C@H]2c3ccccc3C(=O)N12 [4aA] | 98.99% | 86.94% | 102.43%
2 | O=C(NCc1ccccc1C(F)(F)F)[C@@H]1CS[C@H]2c3ccccc3C(=O)N12 [4aC] | 101.45% | 95.46% | 101.08%
3 | O=C(NCc1cccc(C(F)(F)F)c1)[C@@H]1CS[C@H]2c3ccccc3C(=O)N12 [4aD] | 98.14% | 100.68% | 96.47%
4 | COc1cccc(CNC(=O)[C@@H]2CS[C@H]3c4ccccc4C(=O)N23)c1 [4aE] | 105.19% |  | 
5 | COc1ccc(CNC(=O)[C@@H]2CS[C@H]3c4ccccc4C(=O)N23)cc1 [4aF] | 110.21% | 101.53% | 97.30%
6 | COc1ccccc1CNC(=O)[C@@H]1CS[C@H]2c3ccccc3C(=O)N12 [4aG] | 110.50% |  | 
7 | O=C(NCc1ccc(Cl)cc1Cl)[C@@H]1CS[C@H]2c3ccccc3C(=O)N12 [4aH] | 98.06% | 95.83% | 93.16%
8 | COc1ccc(CNC(=O)[C@@H]2CS[C@H]3c4ccccc4C(=O)N23)cc1OC [4aI] | 100.89% |  | 
9 | COc1cc(CNC(=O)[C@@H]2CS[C@H]3c4ccccc4C(=O)N23)cc(OC)c1OC [4aJ] | 99.01% | 97.62% | 96.47%
10 | C[C@@]12SC[C@@H](C(=O)NCc3ccccc3)N1C(=O)c1ccccc12 [4bA] | 95.20% |  | 
11 | C[C@@]12SC[C@@H](C(=O)NCc3ccccc3Br)N1C(=O)c1ccccc12 [4bB] | 89.32% |  | 
12 | C[C@@]12SC[C@@H](C(=O)NCc3ccccc3C(F)(F)F)N1C(=O)c1ccccc12 [4bC] | 94.74% |  | 
13 | C[C@@]12SC[C@@H](C(=O)NCc3cccc(C(F)(F)F)c3)N1C(=O)c1ccccc12 [4bD] | 93.35% |  | 
14 | COc1cccc(CNC(=O)[C@@H]2CS[C@@]3(C)c4ccccc4C(=O)N23)c1 [4bE] | 101.62% |  | 
15 | COc1ccc(CNC(=O)[C@@H]2CS[C@@]3(C)c4ccccc4C(=O)N23)cc1 [4bF] | 101.88% |  | 
16 | COc1ccccc1CNC(=O)[C@@H]1CS[C@@]2(C)c3ccccc3C(=O)N12 [4bG] | 107.44% |  | 
17 | C[C@@]12SC[C@@H](C(=O)NCc3ccc(Cl)cc3Cl)N1C(=O)c1ccccc12 [4bH] | 97.63% |  | 
18 | COc1ccc(CNC(=O)[C@@H]2CS[C@@]3(C)c4ccccc4C(=O)N23)cc1OC [4bI] | 96.04% |  | 
19 | COc1cc(CNC(=O)[C@@H]2CS[C@@]3(C)c4ccccc4C(=O)N23)cc(OC)c1OC [4bJ] | 91.58% |  | 
